Like-named read-outs stand apart in the source and are kept apart here.
Experiments:
P. aeruginosa ATCC 27853 [1] = experiment: MIC by serial dilutions in broth (visible growth); settings: for MIC: Pseudomonas aeruginosa, ATCC27853
Procedure: (§3) The minimum inhibitory concentration (MIC) and minimum bactericidal concentration (MBC) of the antibacterial composition enriched for the light isotope zinc ^64Zne was evaluated in the experiment. […] S. aureus ATCC 25923, E. coli ATCC 25922 and P. aeruginosa ATCC 27853 were used as test cultures.
(§4) The studies were carried out using the method of serial dilutions in broth. To determine sensitivity of microorganisms to the antibacterial composition, 0.5 ml of broth was placed into each tube. The number of tubes was determined based on the desired number of dilutions and was increased by one for the “negative” control (no test composition). Series of two-fold serial dilutions of the test variants of the antibacterial composition were used and concentrations ranging from 450 mcg ^64Zne/ml to 0.000107 mcg ^64Zne/ml were obtained.
(§5) Reference test strains of S. aureus ATCC 25923, E. coli ATCC 25922 and P. aeruginosa ATCC 27853 were incubated in Mueller-Hinton liquid broth at 37° C. for 24 hours. Standard bacterial suspension equivalent to 0.5 McFarland standard diluted 100-fold with the broth was used for the inoculation of the tubes after which the concentration of microorganism in it was approximately 10^6 CFU/ml.
(§6) 0.5 ml of inoculum was added to each tube containing 0.5 ml of the appropriate dilution of a solution of the ^64Zn-enriched salt of interest. […] The final concentration of the microorganism in each tube was approximately 5×10^5 CFU/ml.
(§7) The tubes were incubated at 35° C. in air for 16-20 or 20-24 hours (depending on the bacterial strain).
(§8) To determine the presence of microorganism growth the test tubes with inoculum were viewed under transmitted light. Transmitted light was measured by spectrophotometry. The growth of culture in the presence of antibacterial compositions based on ^64Zne was compared with the reference test tube (“negative” control), containing the original inoculum and stored in the refrigerator. The MIC was determined as the lowest concentration of ^64Zne that inhibits visible growth of the microorganism. Both gram-positive (S. aureus) and gram-negative bacteria (P. aeruginosa, E. coli) were used in the experiments described below.
(§9) That is, ^64Zne in the form of a salt was compared with a composition that contains zinc with a natural distribution of isotopes. […] Relevant samples containing salt of natural zinc with EDDA and natural zinc sulfate were used for the comparison.
(§10) The following commercial antibacterial medications were used for the study: azithromycin and ceftriaxone and norfloxacin. The initial concentration of 3000 mcg/ml was used for the samples of all the above compounds. […] Serial dilutions of the above antibacterial compounds were also prepared in the same way as for the antibacterial composition of the invention. The same pathogenic strains of S. aureus ATCC 25923, E. coli ATCC 25922, P. aeruginosa ATCC 27853 were used for the study.

S. aureus ATCC 25923 [2] = experiment: MIC by serial dilutions in broth (visible growth); type: cell-based; settings: for MIC: Staphylococcus aureus, ATCC25923, read-out: MIC;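 on all read-outs here: broth tubes inoculated at about 5×10^5 CFU/ml, incubated 16-24 h at 35 °C in air, growth judged by transmitted light against an unexposed refrigerated inoculum tube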
Procedure: as §3, §4, §5, §6, §7, §8, §9, §10

P. aeruginosa ATCC 27853 [3] = experiment: MBC by plating tube contents on Mueller-Hinton medium; type: cell-based; settings: Pseudomonas aeruginosa, ATCC27853; Table 10, commercial antibacterial agents; read-out: MBC
Procedure: (§1) To evaluate the bactericidal action of the antibacterial composition based on light isotope ^64Zne the minimum bactericidal concentration (MBC) was determined by plating out 0.1 ml of the contents of each tube containing the antibacterial composition on Mueller-Hinton medium. The incubation was at 37° C. for 24 h.
(§2) The MBC of the test samples was determined as the lowest concentration at which there was no growth on Mueller-Hinton agar medium.

S. aureus ATCC 25923 [4] = experiment: as above; type: cell-based; settings: Staphylococcus aureus, ATCC25923; Table 10, commercial antibacterial agents; read-out: MBC
Procedure: as §1, §2

E. coli ATCC 25922 [5] = experiment: as above; type: cell-based; settings: Escherichia coli, ATCC25922; Table 10, commercial antibacterial agents; read-out: MBC
Procedure: as §1, §2

E. coli ATCC 25922 [6] = experiment: MIC by serial dilutions in broth (visible growth); type: cell-based; settings: for MIC: Escherichia coli, ATCC25922, read-out: MIC;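 on all read-outs here: broth tubes inoculated to about 5×10^5 CFU/ml, incubated at 35 °C for 16-24 h, growth judged by transmitted light versus an untreated inoculum reference tube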
Procedure: as §3, §4, §5, §6, §7, §8, §9, §10

[7] = Table 9, commercial antibacterial agents
[8] = concentration of ^64Zne, Tables 1-5

CCn1cc(C(=O)O)c(=O)c2cc(F)c(N3CCNCC3)cc21 [norfloxacin, reference compound]
23.4 µg/mL: MIC (E. coli ATCC 25922 [6]; [7])
< 1500 µg/mL: MBC (P. aeruginosa ATCC 27853 [3]) | MBC (S. aureus ATCC 25923 [4]) | MBC (E. coli ATCC 25922 [5])
188 µg/mL: MIC (P. aeruginosa ATCC 27853 [1])
11.7 µg/mL: MIC (S. aureus ATCC 25923 [2]; [7])

NC(CC(=O)O)C(=O)O (stereo not shown) [^64Zne aspartate]
0.732 µg/mL: MIC (P. aeruginosa ATCC 27853 [1])
0.0057 µg/mL: MIC (S. aureus ATCC 25923 [2]; [8])
0.0229 µg/mL: MIC (E. coli ATCC 25922 [6]; [8])
+: visible growth (S. aureus ATCC 25923 [2]; ^64Zne 0.00018 mcg/ml) | visible growth (S. aureus ATCC 25923 [2]; ^64Zne 0.00036 mcg/ml) | visible growth (S. aureus ATCC 25923 [2]; ^64Zne 0.00072 mcg/ml) | visible growth (S. aureus ATCC 25923 [2]; ^64Zne 0.0014 mcg/ml) | visible growth (S. aureus ATCC 25923 [2]; ^64Zne 0.0029 mcg/ml) | visible growth (E. coli ATCC 25922 [6]; ^64Zne 0.00018 mcg/ml) | visible growth (E. coli ATCC 25922 [6]; ^64Zne 0.00036 mcg/ml) | visible growth (E. coli ATCC 25922 [6]; ^64Zne 0.00072 mcg/ml) | visible growth (E. coli ATCC 25922 [6]; ^64Zne 0.0014 mcg/ml) | visible growth (E. coli ATCC 25922 [6]; ^64Zne 0.0029 mcg/ml) | visible growth (E. coli ATCC 25922 [6]; ^64Zne 0.0057 mcg/ml) | visible growth (E. coli ATCC 25922 [6]; ^64Zne 0.011 mcg/ml)
best results: bacteriostatic activity (in words) (P. aeruginosa ATCC 27853 [1])
−: visible growth (S. aureus ATCC 25923 [2]; ^64Zne 0.0057 mcg/ml) | visible growth (S. aureus ATCC 25923 [2]; ^64Zne 0.011 mcg/ml) | visible growth (S. aureus ATCC 25923 [2]; ^64Zne 0.023 mcg/ml) | visible growth (S. aureus ATCC 25923 [2]; ^64Zne 0.046 mcg/ml) | visible growth (S. aureus ATCC 25923 [2]; ^64Zne 0.092 mcg/ml) | visible growth (S. aureus ATCC 25923 [2]; ^64Zne 0.18 mcg/ml) | visible growth (S. aureus ATCC 25923 [2]; ^64Zne 0.37 mcg/ml) | visible growth (S. aureus ATCC 25923 [2]; ^64Zne 0.73 mcg/ml) | visible growth (S. aureus ATCC 25923 [2]; ^64Zne 1.46 mcg/ml) | visible growth (S. aureus ATCC 25923 [2]; ^64Zne 2.93 mcg/ml) | visible growth (S. aureus ATCC 25923 [2]; ^64Zne 5.86 mcg/ml) | visible growth (S. aureus ATCC 25923 [2]; ^64Zne 11.72 mcg/ml) | visible growth (S. aureus ATCC 25923 [2]; ^64Zne 23.44 mcg/ml) | visible growth (S. aureus ATCC 25923 [2]; ^64Zne 46.88 mcg/ml) | visible growth (S. aureus ATCC 25923 [2]; ^64Zne 93.75 mcg/ml) | visible growth (S. aureus ATCC 25923 [2]; ^64Zne 187.5 mcg/ml) | visible growth (S. aureus ATCC 25923 [2]; ^64Zne 375 mcg/ml) | visible growth (E. coli ATCC 25922 [6]; ^64Zne 0.023 mcg/ml) | visible growth (E. coli ATCC 25922 [6]; ^64Zne 0.046 mcg/ml) | visible growth (E. coli ATCC 25922 [6]; ^64Zne 0.092 mcg/ml) | visible growth (E. coli ATCC 25922 [6]; ^64Zne 0.18 mcg/ml) | visible growth (E. coli ATCC 25922 [6]; ^64Zne 0.37 mcg/ml) | visible growth (E. coli ATCC 25922 [6]; ^64Zne 0.73 mcg/ml) | visible growth (E. coli ATCC 25922 [6]; ^64Zne 1.46 mcg/ml) | visible growth (E. coli ATCC 25922 [6]; ^64Zne 2.93 mcg/ml) | visible growth (E. coli ATCC 25922 [6]; ^64Zne 5.86 mcg/ml) | visible growth (E. coli ATCC 25922 [6]; ^64Zne 11.72 mcg/ml) | visible growth (E. coli ATCC 25922 [6]; ^64Zne 23.44 mcg/ml) | visible growth (E. coli ATCC 25922 [6]; ^64Zne 46.88 mcg/ml) | visible growth (E. coli ATCC 25922 [6]; ^64Zne 93.75 mcg/ml) | visible growth (E. coli ATCC 25922 [6]; ^64Zne 187.5 mcg/ml) | visible growth (E. coli ATCC 25922 [6]; ^64Zne 375 mcg/ml) | visible growth (E. coli ATCC 25922 [6]; ^64Zne 750 mcg/ml)
